The structures appear in SMILES notation. Where a name gives a salt, the structure may show the parent alone.

In patent publication US7045544B2, “Substituted 2,5-diamidoindoles as ECE inhibitors for the treatment of cardiovascular diseases” (Bayer HealthCare AG, priority 2001, dated 2006) one finds IC50 data, which are given here for three compounds.

For this experiment, the target named is T1, endothelin-converting enzyme (ECE) (Homo sapiens, UniProt P42892).
T1 construct: The ECE activity for identifying the substances described herein originates from the endothelial cell line EA.hy926; endogenous in cells; host or cells: EA.hy926 endothelial cells (intact, confluent)
T1 sequence (P42892 1-770): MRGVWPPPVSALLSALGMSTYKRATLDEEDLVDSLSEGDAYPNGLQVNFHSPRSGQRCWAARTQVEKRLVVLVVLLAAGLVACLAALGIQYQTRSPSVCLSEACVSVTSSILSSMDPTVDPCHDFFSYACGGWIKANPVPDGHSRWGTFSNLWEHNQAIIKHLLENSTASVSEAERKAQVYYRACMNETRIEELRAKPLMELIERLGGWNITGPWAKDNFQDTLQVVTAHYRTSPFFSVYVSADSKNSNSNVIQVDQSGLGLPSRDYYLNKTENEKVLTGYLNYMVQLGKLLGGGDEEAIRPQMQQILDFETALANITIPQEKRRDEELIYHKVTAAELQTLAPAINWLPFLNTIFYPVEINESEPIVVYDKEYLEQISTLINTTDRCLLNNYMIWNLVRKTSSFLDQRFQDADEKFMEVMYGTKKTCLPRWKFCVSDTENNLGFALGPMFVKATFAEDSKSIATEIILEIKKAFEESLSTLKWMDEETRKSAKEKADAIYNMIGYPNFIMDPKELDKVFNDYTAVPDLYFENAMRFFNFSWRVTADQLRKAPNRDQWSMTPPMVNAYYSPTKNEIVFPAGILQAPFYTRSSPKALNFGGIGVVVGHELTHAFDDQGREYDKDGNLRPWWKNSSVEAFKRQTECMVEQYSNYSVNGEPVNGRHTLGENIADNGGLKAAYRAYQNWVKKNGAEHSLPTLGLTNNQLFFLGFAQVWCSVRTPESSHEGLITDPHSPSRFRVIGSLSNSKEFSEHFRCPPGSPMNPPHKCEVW
Kind of experiment: cell-based. The conditions noted are these: ECE activity of endothelial cell line EA.hy926; 1–100 nM bET; 100 μM thiophane added; ET-1 formed measured by EIA. Here is the method: Functional in Vitro Assay
The ECE activity for identifying the substances described herein originates from the endothelial cell line EA.hy926. The ECE-inhibitory action of the compounds in this invention is tested as described below:
For 12–48 h, EA.hy296 cells are cultivated in a 384-well cell culture dish in 80 μl of cell culture medium (DMEM supplemented with 10% FCS, 2 mM glutamine, 10 mM HEPES, 1 mM sodium pyruvate and 1×HAT (Gibco 21060-017)) in a humid atmosphere (100% atmospheric humidity) enriched with 7% v/v of CO2 at 37° C. After confluence has been reached, and immediately prior to the actual beginning of measurement, the supernatant of the cell culture is pipetted off and replaced by 40 or 80 μl of the same medium to which 1–100 nM bET has been added. After 30–120 minutes under otherwise identical cell culture conditions, the supernatant is pipetted off. Cellular components are removed by centrifugation in a customary bench-top centrifuge (10 000 rpm; 2 minutes). The resulting clear supernatant is either used directly as described below or shock-frozen in dry ice and then stored at −20° C. Directly removed supernatant or thawed, stored supernatant are measured in an enzyme immunoassay (EIA).
To determine the inhibitory activity of ECE inhibitors, EA.hy296 cells are incubated with the test substance in a concentration between 0.001–5 μM under the conditions described above. To minimize possible interference by neutral endopeptidase (NEP24.11), 100 μM of thiophane are added during the bET incubation of the EA.hy926 cells.
The proportion of the ET-1 formed by ECE cleavage is measured as follows: depending on the amount of converted bET, the samples are, prior to use, diluted 2–100-fold with EIA. An appropriate dilution of the cell supernatant is incubated in 100 μl portions for 14–18 hours in the sample tubes of the EIA kit Biomedica B1-20052.
Regarding `CC(C)(C)CC(=O)Nc1ccc2c(c1)cc(C(=O)Nc1ccc(NS(C)(=O)=O)cc1)n2Cc1ccccc1F` [Example 58], half-maximal inhibition (IC50) was put at 1.6 µM.
Take `CC(=O)Nc1ccc(NC(=O)c2cc3cc(NC(=O)CC(C)(C)C)ccc3n2Cc2ccccc2F)cc1` [Example 60]: the half-maximal inhibitory concentration (IC50) (as a rule, the midpoint of a concentration-inhibition curve) stood at 0.7 µM.
For `CC(C)(C)CC(=O)Nc1ccc2c(c1)cc(C(=O)Nc1ccc(N)cc1)n2Cc1ccccc1F` [Example 57, N-(4-Aminophenyl)-5-[(3,3-dimethylbutanoyl)amino]-1-(2-fluorobenzyl)-1H-indole-2-carboxamide hydrochloride] the value was 1.5 µM.
